Measurements taken from paper PMC9944328 (Nature Communications, 2023).
Read-outs that look alike come from different tables or passages of the source.

Test system: SSTR2 mutants
Assay: SSTRs Gi-mediated cAMP inhibition, GloSensor, HEK293, 5 μM forskolin, 15 min room temperature (SSTR2 mutants)
Type: cell-based, human
Parameters: Best-fit Bottom, cAMP inhibition / Best-fit Top, cAMP inhibition / Span, cAMP inhibition / Bottom (best-fit value) / Top (best-fit value) / Span (best-fit value) / Span (best-fit) / Bottom (best-fit) / Top (best-fit) / Best-fit Bottom / Best-fit Top / Best-fit Span / Top / Span: scale not given here
Experimental: The levels of the intracellular 3′, 5′-cyclic AMP (cAMP) were measured by the GloSensor cAMP assay (Promega) as described in the previous studies[28],[41] which has been widely used. The human full-length SSTRs and mutants were cloned into the pcDNA3.1+ vector with a HA signal sequence followed by a Flag tag at the N-terminus. HEK293 cells (ATCC, CRL-1573) were seeded into 6-well microplates at a density of 1.0 × 10^6 cells/well and cultured for 24 h at 37 °C with 5% CO2. Cells were then co-transfected with SSTR wild-type or mutants and GloSensor plasmids. After 24 h of transfection, the cells were dissociated with TrypLE™ Express Enzyme (1X) (Thermo Fisher Scientific) and collected by centrifugation at 500 × g for 5 min. Then the collected cells were suspended in Hank’s balanced salt solution [HBSS (Thermo Fisher Scientific)] supplemented with […] (YEASEN), and then the suspension cells were seeded into 96-well plates with 90 μl/well. After incubating at room temperature for 40 min, 5 μM forskolin and ligands diluted in HBSS were added to each well and the plates were incubated at room temperature for 15 min. […] were measured using the Synergy H1 microplate reader (BioTek) and the data presented are means of at least three independent experiments.

[1] = cAMP inhibition, SSTR2 F127A-1 (run 1)
[2] = cAMP inhibition, SSTR2 F127A-2 (run 2)
[3] = cAMP inhibition, SSTR2 F127A-3 (run 3)
[4] = cAMP inhibition, SSTR2 F208A-1 (run 1)
[5] = cAMP inhibition, SSTR2 F208A-2 (run 2)
[6] = cAMP inhibition, SSTR2 F208A-3 (run 3)
[7] = cAMP inhibition, SSTR2 I130A-1 (run 1)
[8] = cAMP inhibition, SSTR2 I130A-2 (run 2)
[9] = cAMP inhibition, SSTR2 I130A-3 (run 3)
[10] = cAMP inhibition, SSTR2 Y205A-1 (run 1)
[11] = cAMP inhibition, SSTR2 Y205A-2 (run 2)
[12] = cAMP inhibition, SSTR2 Y205A-3 (run 3)
[13] = cAMP inhibition, SSTR2 T194H, run 1
[14] = cAMP inhibition, SSTR2 T194H, run 2
[15] = cAMP inhibition, SSTR2 T194H, run 3
[16] = cAMP inhibition, SSTR2 T194H, run 4
[17] = cAMP inhibition, SSTR2 V103N, run 1
[18] = cAMP inhibition, SSTR2 V103N, run 2
[19] = cAMP inhibition, SSTR2 V103N, run 3
[20] = cAMP inhibition, SSTR2 V103N, run 4

C[C@@H](O)[C@@H]1NC(=O)[C@H](CCCCN)NC(=O)[C@@H](Cc2c[nH]c3ccccc23)NC(=O)[C@H](Cc2ccccc2)NC(=O)[C@@H](NC(=O)[C@H](N)Cc2ccccc2)CSSC[C@@H](C(=O)N[C@H](CO)[C@@H](C)O)NC1=O [octreotide]
Top (best-fit value) (W188A-2, run 2): 109.9 | EC50 (W188A-2, run 2, read-out: EC50 (best-fit value)): 0.0722 nM | Bottom (best-fit value) (W188A-3, run 3): 3.856 | LogEC50 (best-fit value) (W188A-3, run 3): -9.118 | Span (best-fit value) (W188A-3, run 3): 88.75 | Top (best-fit value) (W188A-3, run 3): 92.61 | EC50 (W188A-3, run 3, read-out: EC50 (best-fit value)): 0.762 nM | Bottom (best-fit) (W269A-1): -8.692 | LogEC50 (best-fit) (W269A-1): -8.978 | Span (best-fit) (W269A-1): 108.2 | Top (best-fit) (W269A-1): 99.53 | EC50 (W269A-1, read-out: EC50 (best-fit)): 1.05 nM | Bottom (best-fit) (W269A-2): -48.61 | LogEC50 (best-fit) (W269A-2): -9.361 | Span (best-fit) (W269A-2): 149.9 | Top (best-fit) (W269A-2): 101.3 | EC50 (W269A-2, read-out: EC50 (best-fit)): 0.435 nM | Bottom (best-fit) (W269A-3): 12.63 | LogEC50 (best-fit) (W269A-3): -8.938 | Span (best-fit) (W269A-3): 80.26 | Top (best-fit) (W269A-3): 92.88 | EC50 (W269A-3, read-out: EC50 (best-fit)): 1.15 nM | Best-fit Bottom (Y302A-1): -1.091 | Best-fit Span (Y302A-1): 74.2 | Best-fit Top (Y302A-1): 73.11 | LogEC50 (Y302A-1): -6.976 | EC50 (Y302A-1, read-out: EC50): 106 nM | Best-fit Bottom (Y302A-2): -6.663 | Best-fit Span (Y302A-2): 106.6 | Best-fit Top (Y302A-2): 99.95 | LogEC50 (Y302A-2): -7.6 | EC50 (Y302A-2, read-out: EC50): 25.1 nM | Best-fit Bottom (Y302A-3): -0.9588 | Best-fit Span (Y302A-3): 65.18 | Best-fit Top (Y302A-3): 64.22 | LogEC50 (Y302A-3): -6.976 | cAMP inhibition potency of mutants (alanine replacement of F208, F272, Y302, Q126, D122 in SSTR2): significantly decreased the cAMP inhibition potency | Bottom (best-fit value) [1]: 3.745 | LogEC50 (best-fit value) [1]: -9.177 | Span (best-fit value) [1]: 105.4 | Top (best-fit value) [1]: 109.1 | EC50 (cAMP inhibition, SSTR2 F127A-1 (run 1), read-out: EC50 (best-fit value)): 0.665 nM | Bottom (best-fit value) [2]: 6.147 | LogEC50 (best-fit value) [2]: -8.668 | Span (best-fit value) [2]: 104 | Top (best-fit value) [2]: 110.1 | EC50 (cAMP inhibition, SSTR2 F127A-2 (run 2), read-out: EC50 (best-fit value)): 2.15 nM | Bottom (best-fit value) [3]: 2.844 | LogEC50 (best-fit value) [3]: -8.526 | Span (best-fit value) [3]: 104.1 | Top (best-fit value) [3]: 107 | EC50 (cAMP inhibition, SSTR2 F127A-3 (run 3), read-out: EC50 (best-fit value)): 2.98 nM | Bottom (best-fit value) [4]: 10.39 | LogEC50 (best-fit value) [4]: -7.519 | Top (best-fit value) [4]: 89.25 | EC50 (cAMP inhibition, SSTR2 F208A-1 (run 1), read-out: EC50 (best-fit value)): 30.3 nM | Bottom (best-fit value) [5]: -4.181 | LogEC50 (best-fit value) [5]: -7.462 | Top (best-fit value) [5]: 54.09 | EC50 (cAMP inhibition, SSTR2 F208A-2 (run 2), read-out: EC50 (best-fit value)): 34.6 nM | Bottom (best-fit value) [6]: 13.21 | LogEC50 (best-fit value) [6]: -7.519 | Top (best-fit value) [6]: 113.5 | Bottom (best-fit value) [7]: 14.54 | LogEC50 (best-fit value) [7]: -8.728 | Span (best-fit value) [7]: 76.49 | Top (best-fit value) [7]: 91.02 | EC50 (cAMP inhibition, SSTR2 I130A-1 (run 1), read-out: EC50 (best-fit value)): 1.87 nM | Bottom (best-fit value) [8]: 3.27 | LogEC50 (best-fit value) [8]: -7.739 | Span (best-fit value) [8]: 103.8 | Top (best-fit value) [8]: 107 | EC50 (cAMP inhibition, SSTR2 I130A-2 (run 2), read-out: EC50 (best-fit value)): 18.2 nM | Bottom (best-fit value) [9]: 1.85 | LogEC50 (best-fit value) [9]: -7.833 | Span (best-fit value) [9]: 103.6 | Top (best-fit value) [9]: 105.4 | EC50 (cAMP inhibition, SSTR2 I130A-3 (run 3), read-out: EC50 (best-fit value)): 14.7 nM | Bottom (best-fit value) [10]: -15.61 | LogEC50 (best-fit value) [10]: -10.22 | Span (best-fit value) [10]: 114 | Top (best-fit value) [10]: 98.43 | EC50 (cAMP inhibition, SSTR2 Y205A-1 (run 1), read-out: EC50 (best-fit value)): 0.0606 nM | Bottom (best-fit value) [11]: -21.77 | LogEC50 (best-fit value) [11]: -10.31 | Span (best-fit value) [11]: 99.08 | Top (best-fit value) [11]: 77.31 | EC50 (cAMP inhibition, SSTR2 Y205A-2 (run 2), read-out: EC50 (best-fit value)): 0.0488 nM | Bottom (best-fit value) [12]: 1.644 | LogEC50 (best-fit value) [12]: -9.761 | Span (best-fit value) [12]: 161.4 | Top (best-fit value) [12]: 163 | EC50 (cAMP inhibition, SSTR2 Y205A-3 (run 3), read-out: EC50 (best-fit value)): 0.173 nM | LogEC50 (best-fit) [13]: -7.55 | Top (best-fit) [13]: 86.06 | EC50 (cAMP inhibition, SSTR2 T194H, run 1, read-out: EC50 (best-fit)): 28.2 nM | LogEC50 (best-fit) [14]: -7.55 | Top (best-fit) [14]: 86.06 | EC50 (cAMP inhibition, SSTR2 T194H, run 2, read-out: EC50 (best-fit)): 28.2 nM | LogEC50 (best-fit) [15]: -7.274 | Top (best-fit) [15]: 99.32 | EC50 (cAMP inhibition, SSTR2 T194H, run 3, read-out: EC50 (best-fit)): 53.2 nM | LogEC50 (best-fit) [16]: -7.828 | Top (best-fit) [16]: 111.2 | EC50 (cAMP inhibition, SSTR2 T194H, run 4, read-out: EC50 (best-fit)): 14.9 nM | LogEC50 (best-fit) [17]: -9.644 | Top (best-fit) [17]: 94 | EC50 (cAMP inhibition, SSTR2 V103N, run 1, read-out: EC50 (best-fit)): 0.227 nM | LogEC50 (best-fit) [18]: -9.644 | Top (best-fit) [18]: 94 | EC50 (cAMP inhibition, SSTR2 V103N, run 2, read-out: EC50 (best-fit)): 0.227 nM | LogEC50 (best-fit) [19]: -9.75 | Top (best-fit) [19]: 93.06 | EC50 (cAMP inhibition, SSTR2 V103N, run 3, read-out: EC50 (best-fit)): 0.178 nM | LogEC50 (best-fit) [20]: -9.608 | Top (best-fit) [20]: 108.8 | EC50 (cAMP inhibition, SSTR2 V103N, run 4, read-out: EC50 (best-fit)): 0.247 nM
